Assay results: the supplement of paper PMC13380429

Experiments:
Settings in all cases: 72 h
Calu-3 [1] = assay: drug sensitivity score (DSS) for viability; higher = more toxic; extreme values may be limits of the assay
Vero E6 [2] = assay: as above
Caco-2 [3] = assay: as above
HepG2 [4] = assay: as above
U2OS [5] = assay: as above
Calu-3 [6] = assay: cell viability relative to DMSO; higher = less toxic
Vero E6 [7] = assay: as above
Caco-2 [8] = assay: as above
HepG2 [9] = assay: as above
U2OS [10] = assay: as above
Vero E6 [11] = assay: relative viability EC50 (midpoint between 100% and the lowest measured viability); higher = less toxic
HepG2 [12] = assay: as above
Calu-3 [13] = assay: as above
Caco-2 [14] = assay: as above
U2OS [15] = assay: as above

Row | SMILES | drug sensitivity score (Calu-3 [1]) | drug sensitivity score (Vero E6 [2]) | drug sensitivity score (Caco-2 [3]) | drug sensitivity score (HepG2 [4]) | drug sensitivity score (U2OS [5]) | cell viability (Calu-3 [6]; 1 nM) | cell viability (Calu-3 [6]; 10 nM) | cell viability (Calu-3 [6]; 100 nM) | cell viability (Calu-3 [6]; 1000 nM) | cell viability (Calu-3 [6]; 10000 nM) | cell viability (Vero E6 [7]; 1 nM) | cell viability (Vero E6 [7]; 10 nM) | cell viability (Vero E6 [7]; 100 nM) | cell viability (Vero E6 [7]; 1000 nM) | cell viability (Vero E6 [7]; 10000 nM) | cell viability (Caco-2 [8]; 1 nM) | cell viability (Caco-2 [8]; 10 nM) | cell viability (Caco-2 [8]; 100 nM) | cell viability (Caco-2 [8]; 1000 nM) | cell viability (Caco-2 [8]; 10000 nM) | cell viability (HepG2 [9]; 1 nM) | cell viability (HepG2 [9]; 10 nM) | cell viability (HepG2 [9]; 100 nM) | cell viability (HepG2 [9]; 1000 nM) | cell viability (HepG2 [9]; 10000 nM) | cell viability (U2OS [10]; 1 nM) | cell viability (U2OS [10]; 10 nM) | cell viability (U2OS [10]; 100 nM) | cell viability (U2OS [10]; 1000 nM) | cell viability (U2OS [10]; 10000 nM) | relative viability EC50 (Vero E6 [11]) | relative viability EC50 (HepG2 [12]) | relative viability EC50 (Calu-3 [13]) | relative viability EC50 (Caco-2 [14]) | relative viability EC50 (U2OS [15])
1 | CC(C)(C)C[C@@H]1N[C@@H](C(=O)N[C@H]2CC[C@H](O)CC2)[C@H](c2cccc(Cl)c2F)[C@]12C(=O)Nc1cc(Cl)ccc12 | 0.7 | 7.2 | 1.7 | 13.8 | 4.2 | 90.6% | 92.3% | 95.5% | 110% | 73.1% | 100% | 102% | 97.8% | 63.4% | 49.3% | 97.7% | 104% | 91% | 94.3% | 73.2% | 108% | 95.8% | 95.5% | 28.7% | 24.2% | 99.6% | 109% | 96.3% | 80.7% | 58.2% | 0.583 µM | 0.315 µM | – | – | –
2 | Cc1ccc(C(=O)Nc2ccc(Oc3cc4cnn(C)c4cc3-c3cn[nH]c3)c(F)c2)c(=O)n1-c1ccc(F)cc1 | 5.1 | 2.6 | 2.5 | 8.3 | 1.8 | 92% | 91.9% | 101% | 70.7% | 65.3% | 103% | 99.6% | 96.7% | 92.1% | 68.1% | 98% | 94.9% | 102% | 99.3% | 53.8% | 102% | 110% | 97.4% | 75.5% | 15.6% | 101% | 95.5% | 98.8% | 96.9% | 69.9% | – | 1.43 µM | – | – | –
3 | O=C(NCC1(N2CCN(c3ccccc3)CC2)CCOCC1)c1cccnc1Sc1ccccc1 | 0 | – | 0 | 0 | 0 | 99.4% | 106% | 104% | 99.8% | 95% | – | – | – | – | – | 99.8% | 97.4% | 103% | 98.1% | 94.1% | 107% | 101% | 103% | 97.5% | 91.4% | 96.1% | 96.5% | 101% | 98.9% | 102% | – | > 10 µM | > 10 µM | > 10 µM | > 10 µM
4 | CC(=O)N1CCN(c2ccc(OC[C@@H]3CO[C@@](Cn4ccnc4)(c4ccc(Cl)cc4Cl)O3)cc2)CC1 (racemic) [ketoconazole] | 0 | – | 0.3 | 0.3 | 0 | 97.1% | 90.6% | 96.3% | 96.3% | 96.9% | – | – | – | – | – | 91.9% | 110% | 95.1% | 104% | 82.6% | 112% | 96.1% | 111% | 102% | 83.3% | 98.3% | 101% | 99.3% | 103% | 95.3% | – | > 10 µM | > 10 µM | > 10 µM | > 10 µM
5 | N=C(Nc1ccc(I)cc1)NC1C2CC3CC(C2)CC1C3 (centres undefined) [IPAG] | 0.7 | 2.7 | 6.6 | 7.1 | 0 | 106% | 103% | 98.2% | 101% | 77.2% | 95.7% | 102% | 94.5% | 94.2% | 63.8% | 103% | 98.4% | 97.9% | 88.3% | 16.2% | 97.7% | 96% | 87.6% | 84.8% | 17% | 103% | 102% | 105% | 96.4% | 93.8% | – | 1.81 µM | > 10 µM | 2.05 µM | > 10 µM
6 | CCCCCCCCCCCCCCCC(=O)OC[C@H](O)[C@H]1OC(=O)C(O)=C1O [L-ascorbyl-6-palmitate] | 0 | – | 0 | 0 | 0 | 98.9% | 104% | 94.5% | 108% | 113% | – | – | – | – | – | 95.2% | 100% | 96.1% | 99.7% | 95% | 101% | 93.2% | 92.6% | 94.4% | 97.7% | 100% | 103% | 97.5% | 102% | 97.9% | – | > 10 µM | > 10 µM | > 10 µM | > 10 µM
7 | CC(C)CNc1nc(-c2cccc3ncccc23)cn2c(-c3ccc(C(=O)NC4CC4)cc3)cnc12 [Mps-BAY-2a] | 0 | 5.9 | 3.8 | 9.3 | 1.4 | 107% | 98.5% | 104% | 103% | 93% | 95.7% | 94.5% | 90.1% | 71.1% | 62.2% | 93.1% | 82.9% | 93.1% | 79.4% | 79.9% | 87.9% | 100% | 86% | 57.4% | 47.6% | 101% | 97.6% | 103% | 99.1% | 70.6% | – | 0.255 µM | > 10 µM | > 10 µM | –
